Source: patent publication US7601752B2, “Pyrrolidine derivatives” (Hoffmann-La Roche Inc., priority 2005, dated 2009)

target: T1, human factor Xa (Homo sapiens, UniProt P00742); experiment: Chromogenic peptide substrate (S-2222) assay, inhibition of coagulation factor Xa; assay type: biochemical; settings: apparent dissociation constant by Cheng-Prusoff from IC50; human factor Xa 3 nM, substrate S-2222, HNPT buffer pH 7.8, room temperature
T1 construct: purchased Enzyme Research Laboratories
Experimental: Factor Xa activity was measured spectrophotometrically in microtiter plates in a final volume of 150 μl using the following conditions: Inhibition of human factor Xa (Enzyme Research Laboratories) was tested at an enzyme concentration of 3 nM using the chromogenic substrate S-2222 (Chromogenix AB, Mölndal, Sweden) at […]. The reaction kinetics of the enzyme and the substrate were linear with both time and the enzyme concentration. The inhibitors were dissolved in DMSO and tested at various concentrations up to 100 μM. The inhibitors were diluted using HNPT buffer consisting of HEPES 100 mM, NaCl 140 mM, PEG 6000 0.1% and Tween 80 0.02%, pH 7.8. The cleavage of S-2222 by human factor Xa was followed at 405 nm for 5 minutes at room temperature. The velocity of the reaction was determined by the autoreader from the slope of the linear regression fit to 7 time points (1 minute). The initial velocity for each inhibitor concentration was determined by the slope of at least 4 time points in the linear phase by a linear regression fit […]. Apparent dissociation constants Ki were calculated according to Cheng and Prusoff [Cheng, Y. C.; Prusoff, W. H. Relationship between the inhibition constant (Ki) and the concentration of the inhibitor that causes 50 percent inhibition (IC50) of an enzyme reaction. Biochem. Pharmacol. 1973, 22, 3099-3108.] based on the IC50 and the respective Km, determined previously (Ki=IC50/(1+S/Km)). The Km for the substrate used was determined under the conditions of the test with at least 5 substrate concentrations ranging from 0.5 to 15 times Km. [Lottenberg R, Hall J A, Blinder M, Binder E P, Jackson C M., The action of thrombin on peptide p-nitroanilide substrates. Substrate selectivity and examination of hydrolysis under different reaction conditions. Biochim Biophys Acta. 1983 Feb. 15; 742(3):539-57]. According to Eadie [Eadie G. S. The inhibition of cholinesterase by physostigmine and prostigmine. J. Biol. Chem. 1942, 146, 85-93.], the Km for S-2222 amounted to 613 μM.

T1 sequence (P00742 235-488 limits assumed): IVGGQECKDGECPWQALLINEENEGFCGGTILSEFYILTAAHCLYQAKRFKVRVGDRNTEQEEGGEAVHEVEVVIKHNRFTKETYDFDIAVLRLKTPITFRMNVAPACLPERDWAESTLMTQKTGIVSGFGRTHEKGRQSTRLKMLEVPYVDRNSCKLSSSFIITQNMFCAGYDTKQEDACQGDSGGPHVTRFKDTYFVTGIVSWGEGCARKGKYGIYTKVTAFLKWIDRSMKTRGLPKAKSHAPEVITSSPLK
T1 sequence (P00742 41-179 partner limits assumed): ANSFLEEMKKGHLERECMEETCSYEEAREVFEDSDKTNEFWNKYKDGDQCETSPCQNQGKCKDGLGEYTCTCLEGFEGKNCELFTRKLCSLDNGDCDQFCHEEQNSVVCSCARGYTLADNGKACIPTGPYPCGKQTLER

Structure (SMILES) | Ki [µM]
N#CCN1C[C@@H](NC(=O)c2ccc(Cl)s2)C[C@H]1C(=O)Nc1ccc(-n2ccccc2=O)cc1F [Example 6, (2S,4S)-4-[(5-Chloro-thiophene-2-carbonyl)-amino]-1-cyanomethyl-pyrrolidine-2-carboxylic acid[2-fluoro-4-(2-oxo-2H-pyridin-1-yl)-phenyl]-amide] | 0.046
CC(C)(C)OC(=O)N1C[C@@H](NC(=O)c2ccc(Cl)s2)C[C@H]1C(=O)Nc1ccc(-n2ccncc2=O)cc1F [Example 21, (2S,4S)-4-[(5-Chloro-thiophene-2-carbonyl)-amino]-2-[2-fluoro-4-(2-oxo-2H-pyrazin-1-yl)-phenylcarbamoyl]-pyrrolidine-1-carboxylic acid tert-butyl ester] | 0.065
O=C(N[C@H]1CC(C(=O)Nc2ccc(-n3ccccc3=O)cc2F)N(CCC(F)(F)F)C1)c1ccc(Cl)s1 (mixture of isomers) [Example 14, (S)-4-[(5-Chloro-thiophene-2-carbonyl)-amino]-1-(3,3,3-trifluoro-propyl)-pyrrolidine-2-carboxylic acid[2-fluoro-4-(2-oxo-2H-pyridin-1-yl)-phenyl]-amide] | 0.042
O=C(N[C@@H]1CN[C@H](C(=O)Nc2ccc(-n3ccccc3=O)cc2F)C1)c1ccc(Cl)s1 [Example 2, (2S,4S)-4-[(5-Chloro-thiophene-2-carbonyl)-amino]-pyrrolidine-2-carboxylic acid[2-fluoro-4-(2-oxo-2H-pyridin-1-yl)-phenyl]-amide trifluoro-acetate] | 0.023
